Measured values reported in patent US4705777A, “Cationic oligopeptides having microbicidal activity” (priority 1985, dated 1987).

Key:
L. monocytogenes = assay: Antibacterial action, % killing (Table II), L. monocytogenes; assay type: cell-based, Listeria monocytogenes; settings: 50 μg/ml peptide, 10^7 bacterial cells/ml, 20 min, 37°
Method: (§1) To test antibacterial action of the polypeptides, the following protocol was employed. Various species at 10^7 bacterial cells/ml are incubated for 20 min at 37° with 50 μg/ml of the candidate peptide. Colony counts (viable organisms) are made at the outset of the incubation--beforeaddition of the candidate peptide--and after 20 min of incubation with the candidate peptide.

S. albus = assay: Antibacterial action, % killing (Table II), S. albus; assay type: cell-based, Staphylococcus albus; settings: 50 μg/ml peptide, 10^7 bacterial cells/ml, 20 min, 37°
Method: as §1

S. marscescens = assay: Antibacterial action, % killing (Table II), S. marscescens; assay type: cell-based, Serratia marscescens; settings: 50 μg/ml peptide, 10^7 bacterial cells/ml, 20 min, 37°
Method: as §1

E. coli = assay: Antibacterial action, % killing (Table II), E. coli; assay type: cell-based, Escherichia coli; settings: 50 μg/ml peptide, 10^7 bacterial cells/ml, 20 min, 37°
Method: as §1

[1] = test system: Staphylococcus aureus 566; assay: Antibacterial activity of rabbit granulocyte peptides (Table III), S. aureus 566; assay type: cell-based; settings: 50 μg/ml, 20 min, 37° C., 10 mM sodium phosphate buffer pH 7.4
Method: (§2) The procedure parallels that reported in Lehrer et al., Infection and Immunity (1983) 42:10-14. […] The subculture was grown at 37° C. for 4 h with shaking to provide mid-logarithmic phase organisms that were washed twice with buffer by centrifugation (2000×g, 10 min), and then quantitated spectrophotometrically at 620 nm, with reference to previously established CFU/Optical Density relationships. Bacteria were suspended and experiments were performed in 10 mM sodium phosphate buffer, pH 7.4. In some experiments, buffers were supplemented with 0.14 M NaCl ("high" ionic strength). […] In some experiments, 10 mM phosphate buffer with a pH of 5.8 and conductivity of 1.36 mMHO was used. Peptide "stock solutions" were prepared at 500 μg/ml (microbiuret assay) in 0.01% acetic acid, and stored at -20° C. Typically, incubation mixtures contained 1×10^5 bacterial CFU and 5 μg of peptide in 100 μl of buffer. After incubation for 20 min at 37° C., 900 μl of the same buffer was added, and two additional serial tenfold dilutions were made with that buffer. Duplicate 100 μl aliquots from the three serial dilutions were spread over appropriate nutrient agar plates and incubated for 24-72 h to insure full colony development. Killing of microorganisms was expressed as the logarithm10 No /N, where No represented the initial colony count and N represented the colony count after incubation with peptide. There was no significant alteration in colony count when any of the test organisms were exposed to peptide-free buffer for 20 min.

[2] = test system: Escherichia coli ATCC 29648; assay: Antibacterial activity of rabbit granulocyte peptides (Table III), E. coli; assay type: cell-based; settings: 50 μg/ml, 20 min, 37° C., 10 mM sodium phosphate buffer pH 7.4
Method: as §2

[3] = test system: Streptococcus pneumoniae Type III; assay: Antibacterial activity of rabbit granulocyte peptides (Table III), S. pneumoniae; assay type: cell-based; settings: 50 μg/ml, 20 min, 37° C., 10 mM sodium phosphate buffer pH 7.4
Method: as §2

[4] = test system: Listeria monocytogenes 450; assay: Antibacterial activity of rabbit granulocyte peptides (Table III), L. monocytogenes; assay type: cell-based; settings: 50 μg/ml, 20 min; for Bactericidal activity log10 No /N, Listeria monocytogenes 450, pH 5.8: 10 mM phosphate buffer pH 5.8; for Bactericidal activity log10 No /N, Listeria monocytogenes 450: 37° C., 10 mM sodium phosphate buffer pH 7.4; for Bactericidal activity log10 No /N, Listeria monocytogenes 450, "High" ionic strength: buffer pH 7.4 supplemented with 0.14 M NaCl
Method: as §2

[5] = test system: Pseudomonas aeruginosa PAO 579; assay: Antibacterial activity of rabbit granulocyte peptides (Table III), P. aeruginosa; assay type: cell-based; settings: 50 μg/ml, 20 min; for Bactericidal activity log10 No /N, Pseudomonas aeruginosa PAO 579, pH 5.8: 10 mM phosphate buffer pH 5.8; for Bactericidal activity log10 No /N, Pseudomonas aeruginosa PAO 579: 37° C., 10 mM sodium phosphate buffer pH 7.4; for Bactericidal activity log10 No /N, Pseudomonas aeruginosa PAO 579, "High" ionic strength: buffer pH 7.4 supplemented with 0.14 M NaCl
Method: as §2

Serratia marcescens = assay: Antibacterial activity of rabbit granulocyte peptides (Table III), S. marcescens; assay type: cell-based; settings: 50 μg/ml, 20 min, 37° C., 10 mM sodium phosphate buffer pH 7.4
Method: as §2

[6] = test system: Klebsiella pneumoniae ATCC 13883; assay: Antibacterial activity of rabbit granulocyte peptides (Table III), K. pneumoniae; assay type: cell-based; settings: 50 μg/ml, 20 min; for Bactericidal activity log10 No /N, Klebsiella pneumoniae ATCC 13883, pH 5.8: 10 mM phosphate buffer pH 5.8; for Bactericidal activity log10 No /N, Klebsiella pneumoniae ATCC 13883: 37° C., 10 mM sodium phosphate buffer pH 7.4; for Bactericidal activity log10 No /N, Klebsiella pneumoniae ATCC 13883, "High" ionic strength: buffer pH 7.4 supplemented with 0.14 M NaCl
Method: as §2

[7] = test system: Staphylococcus epidermidis UCLA-622; assay: Antibacterial activity of rabbit granulocyte peptides (Table III), S. epidermidis; assay type: cell-based; settings: 50 μg/ml, 20 min, 37° C., 10 mM sodium phosphate buffer pH 7.4
Method: as §2

H. influenzae = assay: Antibacterial action, % killing (Table II), H. influenzae; assay type: cell-based, Haemophilus influenzae; settings: 50 μg/ml peptide, 10^7 bacterial cells/ml, 20 min, 37°
Method: as §1

[8] = test system: Streptococcus agalactiae Type-I-A; assay: Antibacterial activity of rabbit granulocyte peptides (Table III), S. agalactiae Type-I-A; assay type: cell-based; settings: 50 μg/ml, 20 min; for Bactericidal activity log10 No /N, Streptococcus agalactiae Type 1A, pH 5.8: 10 mM phosphate buffer pH 5.8; for Bactericidal activity log10 No /N, Streptococcus agalactiae Type-I-A: 37° C., 10 mM sodium phosphate buffer pH 7.4; for Bactericidal activity log10 No /N, Streptococcus agalactiae Type 1A, "High" ionic strength: buffer pH 7.4 supplemented with 0.14 M NaCl
Method: as §2

S. aureus 502A = assay: Antibacterial action, % killing (Table II), S. aureus 502A; assay type: cell-based, Staphylococcus aureus; settings: 50 μg/ml peptide, 10^7 bacterial cells/ml, 20 min, 37°
Method: as §1

[9] = test system: Bordetella bronchiseptica UCLA-342; assay: Antibacterial activity of rabbit granulocyte peptides (Table III), B. bronchiseptica; assay type: cell-based; settings: 50 μg/ml, 20 min, 37° C., 10 mM sodium phosphate buffer pH 7.4
Method: as §2

Ps. aeruginosa = assay: Antibacterial action, % killing (Table II), Ps. aeruginosa; assay type: cell-based, Pseudomonas aeruginosa; settings: 50 μg/ml peptide, 10^7 bacterial cells/ml, 20 min, 37°
Method: as §1

K. pneumoniae = assay: Antibacterial action, % killing (Table II), K. pneumoniae; assay type: cell-based, Klebsiella pneumoniae; settings: 50 μg/ml peptide, 10^7 bacterial cells/ml, 20 min, 37°
Method: as §1

[10] = test system: Streptococcus agalactiae Type IIIU; assay: Antibacterial activity of rabbit granulocyte peptides (Table III), S. agalactiae Type IIIU; assay type: cell-based; settings: 50 μg/ml, 20 min, 37° C., 10 mM sodium phosphate buffer pH 7.4
Method: as §2

[11] = test system: Staphylococcus aureus 502A; assay: Antibacterial activity of rabbit granulocyte peptides (Table III), S. aureus 502A; assay type: cell-based; settings: 50 μg/ml, 20 min, 37° C., 10 mM sodium phosphate buffer pH 7.4
Method: as §2

[12] = test system: Hemophilus influenzae Type 3A; assay: Antibacterial activity of rabbit granulocyte peptides (Table III), H. influenzae; assay type: cell-based; settings: 50 μg/ml, 20 min, 37° C., 10 mM sodium phosphate buffer pH 7.4
Method: as §2

[13] = test system: Staphylococcus aureus J.F.; assay: Antibacterial activity of rabbit granulocyte peptides (Table III), S. aureus J.F.; assay type: cell-based; settings: 50 μg/ml, 20 min, 37° C., 10 mM sodium phosphate buffer pH 7.4
Method: as §2

HSV-1 = assay: Virus yield reduction, HSV-1; assay type: cell-based, Herpes simplex, Type 1; settings: 100 IU/ml, human GM 2504 fibroblast cell line
VSV = assay type: cell-based, Vesicular stomatitis virus; settings: 10 IU/ml, human GM 2504 fibroblast cell line
E. coli ML-35 = assay: Bactericidal activity of human neutrophil peptides, E. coli ML-35; assay type: cell-based; settings: comparison to Table VI
[14] = test system: Cryptococcus neoformans C-384 (Type C); assay: Antifungal assay of human neutrophil peptides; assay type: cell-based; settings: comparison to Table VI
[15] = test system: Staphylococcus aureus 502A; assay: Bactericidal activity of human neutrophil peptides, S. aureus; assay type: cell-based; settings: comparison to Table VI

Substance | % Killing, L. monocytogenes (L. monocytogenes) | % Killing, S. albus (S. albus) | % Killing, S. marscescens (S. marscescens) | % Killing, E. coli (E. coli) | Bactericidal activity log10 No /N, Staphylococcus aureus 566 [1] | Bactericidal activity log10 No /N, Escherichia coli ATCC 29648 [2] | Bactericidal activity log10 No /N, Streptococcus pneumoniae Type III [3] | Bactericidal activity log10 No /N, Listeria monocytogenes 450, pH 5.8 [4] | Bactericidal activity log10 No /N, Listeria monocytogenes 450 [4] | Bactericidal activity log10 No /N, Listeria monocytogenes 450, "High" ionic strength [4] | Bactericidal activity log10 No /N, Pseudomonas aeruginosa PAO 579, pH 5.8 [5] | Bactericidal activity log10 No /N, Pseudomonas aeruginosa PAO 579 [5] | Bactericidal activity log10 No /N, Pseudomonas aeruginosa PAO 579, "High" ionic strength [5] | Bactericidal activity log10 No /N, Serratia marcescens (Serratia marcescens) | Bactericidal activity log10 No /N, Klebsiella pneumoniae ATCC 13883, pH 5.8 [6] | Bactericidal activity log10 No /N, Klebsiella pneumoniae ATCC 13883 [6] | Bactericidal activity log10 No /N, Klebsiella pneumoniae ATCC 13883, "High" ionic strength [6] | Bactericidal activity log10 No /N, Staphylococcus epidermidis UCLA-622 [7] | Bactericidal activity log10 No /N, Streptococcus agalactiae Type 1A, pH 5.8 [8] | Bactericidal activity log10 No /N, Streptococcus agalactiae Type-I-A [8] | also measured
gly ile cys ala cys arg arg arg phe cys pro asn ser glu arg phe ser gly tyr cys arg val asn gly ala arg tyr val arg cys cys ser arg arg [NP-3a] | D (<50% killing) | D (<50% killing) | C (50-90% killing) | D (<50% killing) | 1.3 log10 | 0.6 log10 | > 3.5 log10 | 0.0 log10 | 0.2 log10 | 0.1 log10 | 0.1 log10 | 3.2 log10 | 0.1 log10 | 0.5 log10 | 0.4 log10 | 2.4 log10 | 0.0 log10 | 1.3 log10 | 0.0 log10 | 0.6 log10 | % Killing, H. influenzae (H. influenzae): B (90-99% killing); Bactericidal activity log10 No /N, Streptococcus agalactiae Type 1A, "High" ionic strength [8]: 0.0 log10; % Killing, S. aureus 502A (S. aureus 502A): D (<50% killing); Bactericidal activity log10 No /N, Bordetella bronchiseptica UCLA-342 [9]: 0.1 log10; % Killing, Ps. aeruginosa (Ps. aeruginosa): A (>99% killing); % Killing, K. pneumoniae (K. pneumoniae): A (>99% killing); Bactericidal activity log10 No /N, Streptococcus agalactiae Type IIIU [10]: 0.3 log10; Bactericidal activity log10 No /N, Staphylococcus aureus 502A [11]: 0.0 log10; Bactericidal activity log10 No /N, Hemophilus influenzae Type 3A [12]: > 1.1 log10; Bactericidal activity log10 No /N, Staphylococcus aureus J.F. [13]: 0.4 log10
IFN-α [reference compound] |  |  |  |  |  |  |  |  |  |  |  |  |  |  |  |  |  |  |  |  | decrease in HSV-1 yield (HSV-1): 0.6 log10; decrease in VSV yield (VSV): 6 log10
asp cys tyr cys arg ile pro ala cys ile ala gly glu arg arg tyr gly thr cys ile tyr gln gly arg leu trp ala phe cys cys [HNP-3] |  |  |  |  |  |  |  |  |  |  |  |  |  |  |  |  |  |  |  |  | microbicidal activity compared with the other HNP, E. coli ML-35 (E. coli ML-35): less microbicidal than the other oligopeptides; microbicidal activity compared with the other HNP, C. neoformans C-384 [14]: less microbicidal than the other oligopeptides; microbicidal activity compared with the other HNP, S. aureus 502A [15]: less microbicidal than the other oligopeptides
gly arg cys val cys arg lys gln 21eu cys ser tyr arg glu arg arg ile gly asp cys lys ile arg gly val arg phe pro phe cys cys pro arg [NP-3b] | B (90-99% killing) | D (<50% killing) | B (90-99% killing) | C (50-90% killing) | 1.7 log10 | 1.4 log10 | > 3.5 log10 | 0.0 log10 | 4.3 log10 | 0.0 log10 | 0.0 log10 | 4.2 log10 | 0.0 log10 | 0.7 log10 | 0.2 log10 | 3.4 log10 | 0.0 log10 | 1.7 log10 | 0.2 log10 | 0.9 log10 | Bactericidal activity log10 No /N, Streptococcus agalactiae Type 1A, "High" ionic strength [8]: 0.0 log10; % Killing, S. aureus 502A (S. aureus 502A): D (<50% killing); Bactericidal activity log10 No /N, Bordetella bronchiseptica UCLA-342 [9]: 0.1 log10; % Killing, Ps. aeruginosa (Ps. aeruginosa): A (>99% killing); Bactericidal activity log10 No /N, Streptococcus agalactiae Type IIIU [10]: 1.2 log10; Bactericidal activity log10 No /N, Staphylococcus aureus 502A [11]: 0.3 log10; Bactericidal activity log10 No /N, Hemophilus influenzae Type 3A [12]: 0.7 log10; Bactericidal activity log10 No /N, Staphylococcus aureus J.F. [13]: 0.8 log10
